Converted amounts (≈) assume the structure as drawn.
How the values were obtained:
[1] = tested on: human peripheral blood mononuclear cells; assay: α TNF production by human peripheral blood mononuclear cells; format: cell-based; settings: for α TNF produced: 18 hours
Outline: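 Ficoll-isolated PBMC from 6 healthy donors (2×10^6 viable cells/ml, RPMI-1640, 10% FCS) exposed in triplicate for 18 h at 37 °C, 5% CO2 to compounds diluted 100-, 10- or 1-fold. Secreted TNF-α measured by chemiluminescent ELISA on 4-fold diluted supernatants against a 0.7–7000 pg/ml standard curve; values in pg/ml.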

[2] = tested on: CD83, CD86 surface markers of predendritic cells (DC-6); assay: dendritic cell differentiation test: CD83, CD86 surface marker expression; format: cell-based, human; settings: for CD86 % CD / CD86 Fluorescence: 10 μg/ml; for CD86 % CD: products redissolved in pyrogen-free water, % of dendritic cells; for CD86 Fluorescence: mean fluorescence value; for concentration inducing an increase in expression of CD83 and CD86 surface markers: FIGS. 75 & 76
Procedure: The ability of products of the invention to induce maturation of predendritic cells into dendritic cells was assessed. The following parameters were measured: FITC-Dextran conjugate take-up and expression of CD83, CD86 surface markers.
Mononucleated cells of peripheral blood are isolated from buffy coats of healthy donors. Purified monocytes by adherence selection are resuspended in RPMI-1640 medium containing 10% of foetal calf serum (FCS), GM-CSF and IL-4 (10 ng/ml) at a density of 1×10^6 cells/ml. Cells are divided into Petri Dishes (10×10^6 cells per dish) and cultured for 6 days with a change to fresh medium after 3 days. Cells thus obtained are called predendritic cells (DC-6). Maturation of predendritic cells into mature dendritic cells is achieved by incubating cells with diluted solutions of the products or LPS (positive control) for 3 more days (see product section below). At day 9 (DC-9), cells are harvested and analyzed for different indicators of dendritic cell maturation: assessment of CD83, CD86 surface marker expression as well as of their ability to take up FITC-Dextran conjugate. All these parameters are analyzed by an EPICS-XL-MCL model FACS (Coulter Immunology, Hialeah, […]).
Expression of surface markers is given as % of mean fluorescence of LPS-activated cells (positive control); FITC-Dextran conjugate take-up rate is calculated based on take-up of cells maintained in basic medium and is expressed in %.
Solutions are incubated at 37° C. for 20 minutes, subjected to vigorous stirring during 3 minutes and then diluted to 100 μg/ml in RPMI-1640 culture medium and used in diluted state at concentrations ranging from 10 μg/ml to 0.03 μg/ml. Reference Product: E. coli lipopolysaccharide (LPS, DIFCO, Detroit, Mich., U.S.A.), as a 5 mg/ml stock solution in PBS. An intermediate 100 μg/ml solution is prepared in RPMI 1640 culture medium. Concentrations of dilute solutions being tested range from 1 μg/ml to 0.03 μg/ml.
In another series of experiments, all acyl dipeptide-like compounds were freeze-dried and directly redissolved into pyrogen-free water. Different products as well as LPS control are tested at a concentration of 10 μg/ml. Results are given as % of dendritic cells and mean fluorescence value for dextran phagocytosis or CD86 surface marker expression.

[3] = tested on: bone marrow stem cells; assay: bone marrow stem cell proliferation (XTT); format: cell-based, C57/BL6 mice; settings: for Max amplitude: 7 days, XTT 492 nm; for Min amplitude: blank ± 3× standard deviation; for Max concentration: concentration at maximum amplitude; for EC50 conc: concentration corresponding to 50% of maximum amplitude; for Min concentration: lowest concentration inducing a significant proliferation
From the text: 6-week old male C57/BL6 mice are killed by CO2 inhalation. The hip, femur, tibia and hind leg bones are removed. The marrow is extracted from the bone lumen by injecting Dulbecco's Modified Eagle Medium (DH medium) from the end portions which had been excised. The stem cells are washed and suspended again in DH medium supplemented with 20% foetal calf serum (FCS) The cell concentration is adjusted to 500000 cells/ml.
Products previously dissolved in DH medium supplemented with 20% FCS, amino acids and antibiotics are serially diluted directly into a microtiter plate. The products are tested in triplicate and each microtiter plate includes a negative control containing plain medium. The final volume in each well is 100 μl.
100 μl of the cell suspension are added to diluted solutions of products and the cells are incubated for 7 days in an incubator at 37° C., under 8% CO2 and a moisture saturated atmosphere. Cell proliferation is determined by measuring the […] of a chromogenic substrate XTT (2,3-bis[2-methoxy-4-nitro-5-sulphophenyl]-2H-tetrazolium-5-carboxanilide) in mitochondria of viable cells.
At the end of the incubation period, 50 μl of the XTT substrate solution (1 mg/ml XTT+0.008 mg/ml phenazine methosulfate) are added to each well. After an 8 hour incubation period at 37° C. under 8% CO2 in a moisture saturated incubator, the microtiter plates are read with a spectrophotometer at 492 nm against a reference sample at 690 nm.
Results are expressed as mean value±standard deviation and plotted as a dose versus response curve. Values for a negative control composed of DH medium (mean±standard deviation) are also graphically shown.
From this dose versus response curve, 3 curve variables are computed:
Max: maximum curve amplitude and corresponding concentration
EC50: concentration corresponding to 50% of maximum amplitude
Min: lowest concentration inducing a significant proliferation corresponding to the blank±3× standard deviation value
Concentration values corresponding to EC50 and Min are determined from line segments joining different points on the curve.
If the curve has no plateau phase but an ascending configuration for the highest concentration being tested, a “>” sign is shown before Max and EC50 values.

Compound | α TNF produced ([1]; product 1 μg/ml) [pg/mL] | α TNF produced ([1]; product 10 μg/ml) [pg/mL] | α TNF produced ([1]; product 100 μg/ml) [pg/mL] | CD86 % CD [2] [%] | CD86 Fluorescence [2] | concentration inducing an increase in expression of CD83 and CD86 surface markers [2] | Max amplitude [3] [O.D] | Min amplitude [3] [O.D] | Max concentration [3] [µg/mL] | EC50 conc [3] [µg/mL] | Min concentration [3] [µg/mL] | concentration at which a significant α TNF production level is induced ([1]; only at this concentration) [µg/mL]
CCCCCCCCCCCC(=O)O[C@H](CCCCCCCCCCC)CC(=O)NC(CCOP(=O)(O)O)C(=O)NCCC[C@H](COC(=O)CCCCCN)NC(=O)C[C@H](O)CCCCCCCCCCC (mixture of isomers) [OM-197-MP-AC (R/S, R), (3RS,9R)-3-[(R)-3-dodecanoyloxytetradecanoylamino]-4oxo-5-aza-9-[(R)-3-hydroxytetradecanoylamino]-decan-10-ol 1-dihydrogen-phosphate(6-aminohexanoate)] | 244 | 156 | 160 | 80.0 | 6.0 | 0.1 µg/mL | 2.12 | 0.80 | 25 | 3.1 (≈ 2.96 µM) | 0.71 | 
CCCCCCCCCCCC(=O)O[C@H](CCCCCCCCCCC)CC(=O)N[C@H](CC(=O)O)C(=O)NCCC[C@H](COC(=O)CCCCCNC(=O)CCC(=O)OC[C@H]1O[C@@H](n2cc(C)c(=O)[nH]c2=O)C[C@@H]1N=[N+]=[N-])NC(=O)C[C@H](O)CCCCCCCCCCC [OM-197-MC-AC-Succ-AZT] | 108 | 224 | 64 | 81.4 | 6.1 |  | 1.08 | 0.80 | 12.5 | 3.3 (≈ 2.48 µM) | 2.11 | 
CCCCCCCCCCCC(=O)O[C@H](CCCCCCCCCCC)CC(=O)N[C@H](CC(=O)O)C(=O)NCCC[C@H](CO)NC(=O)C[C@H](O)CCCCCCCCCCC [OM-197-MC, N—[(R)-3-dodecanoyloxytetradecanoyl]-D-aspartic acid, α-N-{(4R)-5-hydroxy-4[(R)-3-hydroxytetradecanoylamino]-pentyl}amide] | 0 | 0 | 12 |  |  | at least 1 μg/ml | 1.75 | 0.80 | 64 | 19.4 (≈ 22.3 µM) | 1.25 | 100
CCCCCCCCCCCC(=O)O[C@H](CCCCCCCCCCC)CC(=O)N[C@H](CC(=O)O)C(=O)NCCC[C@H](COC(=O)CCCCCN)NC(=O)C[C@H](O)CCCCCCCCCCC [OM-197-MC-AC, N—[(R)-3-dodecanoyloxytetradecanoyl]-D-aspartic acid, α-N-{(4R)-5-(6-aminohexanoyloxy)-4-[(R)-3-hydroxytetradecanoylamino]pentyl}amide] | 12 | 140 | 144 | 67.4 | 5.2 |  | 1.62 | 0.80 | 50 | 31.0 (≈ 31.6 µM) | 0.92 | 

— patent US8173133B2, “Acyl pseudodipeptides which carry a functionalized auxiliary arm” (OM Pharma, priority 1999, dated 2012)
